Where a name gives a salt, the structure may show the parent alone. Read-outs that look alike come from different tables or passages of the source.
How the values were obtained:
[1] = target: T1, FGF14:Nav1.6 C-tail complex (Homo sapiens, UniProt Q92915+Q9UQD0); test: Split-luciferase complementation assay (LCA) in Clone V double stable HEK293 cells; type: cell-based; conditions: for Split Luciferase Assay Z-score Set 1 / Split Luciferase Assay % Lum Set 1: biological replicate Set 1; for Split Luciferase Assay Z-score Set 1 / Split Luciferase Assay Z-score Set 2: normalized to on-plate 0.3% DMSO controls; for Split Luciferase Assay % Lum Set 1 / Split Luciferase Assay %Lum Set 2: normalized to on-plate 0.3% DMSO controls (n=16 per plate); for Split Luciferase Assay Z-score Set 2 / Split Luciferase Assay %Lum Set 2: biological replicate Set 2; for Split Luciferase Assay %Lum Avg: average of Set 1 and Set 2, normalized to 0.3% DMSO controls
T1 construct: polymerase chain reaction (PCR) amplification of the FGF14 open reading frame (nt 1–855); C-terminal fragment of Nav1.6 (amino acids 1763–1976) fused with CD4ΔC-tail (amino acids 1–395); expressed in transfected cells

[2] = target: full-length P. pyralis luciferase (Photinus pyralis, UniProt P08659, K549A/L550V/N119G/N50D/S548I); type: cell-based
[3] = CC_NCI screening, normalized to on-plate 0.3% DMSO controls
[4] = CC_NCI screening, LCA luminescence
[5] = CC_NCI screening, full-length luciferase counter-screen luminescence, normalized to on-plate 0.3% DMSO controls
[6] = CC_NCI screening, full-length luciferase counter-screen, normalized to on-plate 0.3% DMSO controls

T1 sequence (Q92915 1-252 isoform Q92915-2): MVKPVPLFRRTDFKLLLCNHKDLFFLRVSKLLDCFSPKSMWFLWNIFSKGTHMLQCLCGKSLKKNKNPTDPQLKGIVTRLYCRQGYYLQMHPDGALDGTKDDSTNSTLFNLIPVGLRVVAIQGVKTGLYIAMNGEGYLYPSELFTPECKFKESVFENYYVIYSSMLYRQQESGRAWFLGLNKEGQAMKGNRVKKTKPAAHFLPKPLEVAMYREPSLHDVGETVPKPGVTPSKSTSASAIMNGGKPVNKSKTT
T1 sequence (Q9UQD0 1763-1976 limits assumed): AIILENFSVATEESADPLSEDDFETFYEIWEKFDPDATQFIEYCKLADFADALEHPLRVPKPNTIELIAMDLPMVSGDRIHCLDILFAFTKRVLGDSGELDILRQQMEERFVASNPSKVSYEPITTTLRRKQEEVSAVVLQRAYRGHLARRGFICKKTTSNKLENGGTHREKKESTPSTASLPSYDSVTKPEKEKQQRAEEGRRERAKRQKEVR
Chain of full-length P. pyralis luciferase (P08659 whole entry N50D/N119G/S548I/K549A/L550V, looked up): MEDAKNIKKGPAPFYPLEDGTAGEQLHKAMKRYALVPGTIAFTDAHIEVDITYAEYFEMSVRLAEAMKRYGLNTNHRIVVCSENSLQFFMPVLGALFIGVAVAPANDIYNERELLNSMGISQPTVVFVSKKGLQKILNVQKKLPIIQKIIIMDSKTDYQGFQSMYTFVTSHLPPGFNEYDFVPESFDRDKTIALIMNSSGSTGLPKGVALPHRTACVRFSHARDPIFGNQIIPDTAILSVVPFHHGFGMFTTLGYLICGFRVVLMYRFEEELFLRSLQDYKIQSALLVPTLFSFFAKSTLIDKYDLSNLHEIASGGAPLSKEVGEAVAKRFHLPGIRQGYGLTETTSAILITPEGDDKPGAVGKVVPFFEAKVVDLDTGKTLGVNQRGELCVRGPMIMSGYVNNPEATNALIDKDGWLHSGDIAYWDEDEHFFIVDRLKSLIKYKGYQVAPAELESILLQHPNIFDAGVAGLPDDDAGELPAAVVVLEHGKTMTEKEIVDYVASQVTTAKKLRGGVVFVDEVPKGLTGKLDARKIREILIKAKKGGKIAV

Row | Structure (SMILES) | Toxicity Assay % Fluor (Clone V cells; human, 16 h, 30 µM) [%] | Toxicity Assay Z-score (Clone V cells; human, 16 h, 30 µM) | Split Luciferase Assay % Lum Set 1 [1, 4] [%] | Split Luciferase Assay %Lum Set 2 [1, 4] [%] | Split Luciferase Assay Z-score Set 1 ([1]; CC_NCI screening, LCA) | Split Luciferase Assay Z-score Set 2 ([1]; CC_NCI screening, LCA) | Split Luciferase Assay %Lum Avg ([1]; CC_NCI screening) [%] | Luciferase Assay % Lum [2, 5] [%] | Luciferase Assay Z-score [2, 6] | further results
1 | Cc1cc(C(C)Nc2ccccc2)c2nc(N3CCOCC3)cc(=O)n2c1 (centres unmarked) [TGX 221] |  |  |  |  |  |  |  |  |  | Toxicity Assay Z-score (CTB cell viability) (Clone V cells): 2.19; Split Luciferase Assay Z-score Set 1 ([1]; CC_NCI screening): 0.82; Split Luciferase Assay % Lum Set 1 ([1]; CC_NCI screening): 110.12%; Split Luciferase Assay Z-score Set 2 ([1]; CC_NCI screening): 1.94; Split Luciferase Assay %Lum Set 2 ([1]; CC_NCI screening): 123.80%; Split Luciferase Assay %Lum Avg [1]: 116.96%; Luciferase Assay % Lum (full-length luciferase counter-screen) [2, 3]: 101.89%; Luciferase Assay Z-score (full-length luciferase counter-screen) [2, 3]: 0.24
2 | Cc1nc2c(c(=O)[nH]1)CSCC2 [DR 2313] |  |  |  |  |  |  |  |  |  | Toxicity Assay % Fluor (CTB cell viability fluorescence) (Clone V cells): 106.28%; Toxicity Assay Z-score (CTB cell viability) (Clone V cells): 0.88; Split Luciferase Assay Z-score Set 1 ([1]; CC_NCI screening): -1.11; Split Luciferase Assay % Lum Set 1 ([1]; CC_NCI screening): 86.21%; Split Luciferase Assay Z-score Set 2 ([1]; CC_NCI screening): -0.26; Split Luciferase Assay %Lum Set 2 ([1]; CC_NCI screening): 96.75%; Split Luciferase Assay %Lum Avg [1]: 91.48%; Luciferase Assay % Lum (full-length luciferase counter-screen) [2, 3]: 93.50%; Luciferase Assay Z-score (full-length luciferase counter-screen) [2, 3]: -0.83
3 | CCNC(=O)c1noc(-c2cc(C(C)C)c(O)cc2O)c1-c1ccc(CN2CCOCC2)cc1 [NVP AUY922] | 88.69 | -1.58 | 40.55 | 50.98 | -4.80 | -3.99 | 45.76 | 86.39 | -1.74 | 
4 | Cc1cccc(Nc2nc(-c3ccncc3)cs2)c1 [STF-62247] |  |  | 23.16 | 33.29 | -6.21 | -5.43 | 28.22 | 83.43 | -2.12 | Toxicity Assay % Fluor (Clone V cells): 98.46%; Toxicity Assay Z-score (Clone V cells): -0.22
5 | NCCCNCCSP(=O)(O)O [Amifostine] | 93.47 | -0.91 | 109.04 | 116.51 | 0.73 | 1.34 | 112.78 |  |  | Luciferase Assay % Lum [2]: 101.20%; Luciferase Assay Z-score [2]: 0.15
6 | Cn1cc(C2=C(c3ccc(Cl)cc3Cl)C(=O)NC2=O)c2ccccc21 [SB 216763] | 101.41 | 0.20 | 88.38 | 106.11 | -0.94 | 0.50 | 97.25 | 100.07 | 0.01 | 
7 | CN(C)Cc1c(C(=O)NCCOc2ccc(C(=O)NO)cc2)oc2ccccc12 [PCI-24781] | 93.46 | -0.91 | 118.82 | 98.83 | 1.52 | -0.10 | 108.83 | 91.15 | -1.13 | 
8 | COc1cccc2c1C(=O)c1c(O)c3c(c(O)c1C2=O)C[C@@](O)(C(C)=O)C[C@@H]3O[C@H]1C[C@H](N)[C@H](O)[C@H](C)O1 [Daunorubicin hydrochloride] | 81.24 | -2.62 | 48.16 | 61.38 | -4.19 | -3.14 | 54.77 | 65.12 | -4.47 | 
9 | FC(F)c1nc2ccccc2n1-c1nc(N2CCOCC2)nc(N2CCOCC2)n1 [ZSTK474] | 95.63 | -0.61 | 95.99 | 74.90 | -0.32 | -2.04 | 85.45 | 86.44 | -1.74 | 
